Measured values: ChEMBL document CHEMBL1153192, “Macrocyclic BACE-1 inhibitors acutely reduce Abeta in brain after po application” (Bioorg Med Chem Lett, 2010)

Key:
[1] = Drug level in APP50/16 tg mouse brain at 60 umol/kg, po after 4 hrs; format: ADME, organism-based; details: APP50/16 transgenic, read-out: Drug uptake
MDR1 = test: Apparent permeability from apical to basolateral side of MDCK cells expressing MDR1; format: ADME, cell-based, Canis lupus familiaris; details: dog
[2] = Plasma concentration in APP50/16 tg mouse at 60 umol/kg, po after 4 hrs; format: ADME, organism-based; details: APP50/16 transgenic
[3] = Dissociation constant, pKa of the compound; format: physicochemical

concentration at 4 h [1] | Papp A→B (MDR1) | concentration at 4 h [2] | pKa [3] | SMILES
320 nM | 4 ×10⁻⁶ cm/s | 3000 nM |  | Cc1cc2cc(n1)OCCCCOc1cccc(c1)C[C@@H]([C@H](O)CNC1(c3cccc(C(C)C)c3)CC1)NC2=O
 | 1.2 ×10⁻⁶ cm/s |  |  | COCc1cc2cc(c1)C(=O)N[C@H]([C@H](O)CNC1(c3cccc(C(C)(C)C)c3)CCC1)Cc1cccc(c1)OCCCCN2
 | 0.95 ×10⁻⁶ cm/s |  |  | CCCS(=O)(=O)N(C)c1cc2cc(c1)C(=O)N[C@H]([C@H](O)CNCc1cccc(C(C)C)c1)Cc1cccc(c1)OCCCCN2
 | 1.4 ×10⁻⁶ cm/s |  |  | COCc1cc2cc(c1)C(=O)N[C@H]([C@H](O)CNC1(c3cccc(C(C)(C)C)c3)CCCC1)Cc1cccc(c1)OCCCCN2
 | 3.8 ×10⁻⁶ cm/s |  | 7.2 | COCc1cc2cc(c1)C(=O)N[C@H]([C@H](O)CNC(CF)c1cccc(C(C)(C)C)c1)Cc1cccc(c1)OCCCCN2 (stereo not given in full)
540 nM | 4.9 ×10⁻⁶ cm/s | 2200 nM |  | COCc1cc2cc(n1)OCCCCOc1cccc(c1)C[C@@H]([C@H](O)CNC1(c3cccc(C(C)C)c3)CC1)NC2=O
 | 0.4 ×10⁻⁶ cm/s |  |  | CC(C)c1cccc(C2(NC[C@@H](O)[C@@H]3Cc4cccc(c4)OCCCCOc4cc(cc(N5CCCC5=O)c4)C(=O)N3)CC2)c1
 | 1.3 ×10⁻⁶ cm/s |  |  | COCc1cc2cc(c1)C(=O)N[C@H]([C@H](O)CNC(COC)c1cccc(C(C)(C)C)c1)Cc1cccc(c1)OCCCCN2 (stereo not given in full)

Further lines, the compound ahead of its results:

SMILES | concentration at 4 h [1] | Papp A→B (MDR1) | concentration at 4 h [2] | pKa [3]
Cc1cc2cc(n1)OCCCCOc1cccc(c1)C[C@@H]([C@H](O)CNC(C)c1cccc(C(C)C)c1)NC2=O (stereo not given in full) |  | 1.3 ×10⁻⁶ cm/s |  | 8.5
CC(C)c1cccc(CNC[C@@H](O)[C@@H]2Cc3cccc(c3)OCCCCNc3cc(cc(N4C=COC4)c3)C(=O)N2)c1 |  | 0.11 ×10⁻⁶ cm/s |  | 
COCc1cc2cc(c1)C(=O)N[C@H]([C@H](O)CNC(c1cccc(C(C)(C)C)c1)C(F)(F)F)Cc1cccc(c1)OCCCCN2 (stereo not given in full) |  | 5.6 ×10⁻⁶ cm/s |  | 3.8
CCCS(=O)(=O)N(C)c1cc2cc(c1)C(=O)N[C@H]([C@H](O)CNC1(c3cccc(C(C)C)c3)CC1)Cc1cccc(c1)OCCCCN2 |  | 0.28 ×10⁻⁶ cm/s |  | 
COCc1cc2cc(c1)C(=O)N[C@H]([C@H](O)CNC(C)(C)c1cccc(C(C)C)c1)Cc1cccc(c1)OCCCCN2 |  | 1.8 ×10⁻⁶ cm/s |  | 
COCc1cc2cc(c1)C(=O)N[C@H]([C@H](O)CNC1(c3cccc(C(C)C)c3)CC1)Cc1cccc(c1)OCCCCN2 | 250 nM | 3.1 ×10⁻⁶ cm/s | 1200 nM | 7.3
CC(C)c1cccc(CNC[C@@H](O)[C@@H]2Cc3cccc(c3)OCCCCNc3cccc(c3)C(=O)N2)c1 |  | 2 ×10⁻⁶ cm/s |  | 
COCc1cc2cc(c1)C(=O)N[C@H]([C@H](O)CNCc1cccc(C(C)C)c1)Cc1cccc(c1)OCCCCN2 |  | 0.16 ×10⁻⁶ cm/s |  | 
Cc1cc2cc(n1)OCCCCOc1cccc(c1)C[C@@H]([C@H](O)CNCc1cccc(C(C)C)c1)NC2=O | 40 nM | 1.3 ×10⁻⁶ cm/s | 30 nM | 
Cc1cc2cc(n1)NCCCCOc1cccc(c1)C[C@@H]([C@H](O)CNCc1cccc(C(C)C)c1)NC2=O |  | 0.17 ×10⁻⁶ cm/s |  | 
